This is an account of results in patent US20100016366A1, “Novel Compounds Active as Muscarinic Receptor Antagonists” (priority 2008, published 2010).

For test [1], the target named is T1, human muscarinic M3 receptor (Homo sapiens, UniProt P20309).
T1 construct: expressed in transfected cells; host or cells: CHO (CHO-K1) cells
The test is described as follows: Cell based potency assessment, hM3 β-lactamase assay (CHO cell β-lactamase). The note with it: CHO cells recombinantly expressing human M3, NFAT-β-lactamase reporter; inhibition of 80 nM carbamyl choline signal, 4 h; IC50 converted by Cheng-Prusoff. Here is the method: Cell BASED POTENCY ASSESSMENT at the Human Recombinant M3 Muscarinic Receptor
M3 potency was determined in CHO-K1 cells transfected with the NFAT-Betalactamase gene. CHO (Chinese Hamster Ovary) cells recombinantly expressing the human muscarinic M3 receptor were transfected with the NFAT_β-Lac_Zeo plasmid. Cells were grown in DMEM with Glutamax-1, supplemented with 25 mM HEPES (Life Technologies 32430-027), containing 10% FCS (Foetal Calf Serum; Sigma F-7524), […] Sodium pyruvate (Sigma S-8636), NEAA (non-Essential Amino Acids; Invitrogen 11140-035) and 200 μg/ml Zeocin (Invitrogen R250-01).
hM3 β-Lactamase Assay Protocol
Cells were harvested for assay when they reached 80-90% confluency using enzyme free cell Dissociation Solution (Life technologies 13151-014) incubated with the cells for 5 min at 37° C. in an atmosphere containing 5% CO2. Detached cells were collected in warmed growth media and centrifuged at 2000 rpm for 10 min, washed in PBS (Phosphate Buffered Saline; Life Technologies 14190-094) and centrifuged again as just described. The cells were re-suspended at 2×10^5 cells/ml in growth medium (composition as described above). 20 μl of this cell suspension was added to each well of a 384 well black clear bottomed plate (Greiner Bio One 781091-PFI). The assay buffer used was PBS supplemented with 0.05% Pluronic F-127 (Sigma 9003-11-6) and 2.5% DMSO. Muscarinic M3 receptor signalling was stimulated using 80 nM carbamyl choline (Aldrich N240-9) incubated with the cells for 4 h at 37° C./5% CO2 and monitored at the end of the incubation period using a Tecan SpectraFluor+plate reader (λ−excitation 405 nm, emission 450 nm and 503 nm). M3 receptor antagonists under test were added to the assay at the beginning of the 4 h incubation period and compound activity measured as the concentration dependent inhibition of the carbamyl choline induced signal. Inhibition curves were plotted and IC50 values generated using a 4-parameter sigmoid fit and converted to Ki values using the Cheng-Prusoff correction and the KD value for carbamyl choline in the assay.

Test [2] has as its target T1, human muscarinic M3 receptor. Kind of test: hM3 competition binding assay (3H-NMS, CHO cell membranes). The note with it: CHO cell membranes expressing human M3; 3H-NMS at 5×KD, 24 hr at RT; IC50 corrected by Cheng-Prussoff. Here is the method: Binding Affinity Assessment at the Human Recombinant M3 Muscarinic Receptor
Cell Pellets from CHO (Chinese Hamster Ovary) cells recombinantly expressing the human muscarinic M3 receptor were homogenised in 20 mM HEPES (pH7.4) and centrifuged at 48000×g for 20 min at 4° C. The pellet was re-suspended in buffer and the homogenisation and centrifugation steps repeated. The resulting pellet was re-suspended in 1 ml buffer per 1 ml original packed cell volume and the homogenisation step repeated. Protein estimation was carried out on the suspension and 1 ml aliquots of ˜1 mg/ml frozen at −80° C.
hM3 Competition Binding Assay Protocol
Membranes (5 µg/well) were incubated with ^3H-NMS (at a concentration 5×KD) plus/minus test compound for 24 hr at RT (room temperature) in a 1 ml polystyrene 96-well deep well block. The final assay volume was 200 µl, comprising of: 20 µl plus/minus test compound; 20 µl ^3H-NMS (Perkin Elmer NEN 636) and 160 µl membrane solution. Total Binding was defined with 0.1% DMSO; Non-Specific Binding was defined with 1 µM Atropine. Assay buffer was 20 mM Hepes (pH 7.4).
Once all assay components were added, plates were covered and incubated at room temperature for 24 hrs with shaking. The assay was terminated by rapidly filtering through GF/B Unifilter plates pre-soaked with 0.5% polyethylenimine, using a Packard filtermate harvester, the filter plate was then washed with 3×1 ml 4° C. assay buffer. The filter plates were dried at 45° C. for 1 hour. The bottoms of the filter plates were sealed and 50 µl/well of Microscint ‘0’ added, the top of the plates were sealed with a Topseal. Following 90 mins, the plates were read on an NXT Topcount (1 minute read time per well).
The resulting data was expressed as a percentage of the specific binding (Specific binding=Total binding−Non-Specific Binding). % specific binding versus test compound concentration was plotted to determine an IC50 from a sigmoid curve using an in-house data analysis programme. IC50 values corrected to Ki values by applying the Cheng-Prussoff equation: […]
where IC50 is the concentration of unlabelled drug which inhibits by 50% the specific radioligand binding. [L] is the free radioligand concentrations and KD and Ki are the equilibrium dissociation constants of the radioligand and unlabelled drug respectively.

Molecules are shown by their SMILES. pKi: −log10 of the molar value.

T1 sequence (P20309 whole entry): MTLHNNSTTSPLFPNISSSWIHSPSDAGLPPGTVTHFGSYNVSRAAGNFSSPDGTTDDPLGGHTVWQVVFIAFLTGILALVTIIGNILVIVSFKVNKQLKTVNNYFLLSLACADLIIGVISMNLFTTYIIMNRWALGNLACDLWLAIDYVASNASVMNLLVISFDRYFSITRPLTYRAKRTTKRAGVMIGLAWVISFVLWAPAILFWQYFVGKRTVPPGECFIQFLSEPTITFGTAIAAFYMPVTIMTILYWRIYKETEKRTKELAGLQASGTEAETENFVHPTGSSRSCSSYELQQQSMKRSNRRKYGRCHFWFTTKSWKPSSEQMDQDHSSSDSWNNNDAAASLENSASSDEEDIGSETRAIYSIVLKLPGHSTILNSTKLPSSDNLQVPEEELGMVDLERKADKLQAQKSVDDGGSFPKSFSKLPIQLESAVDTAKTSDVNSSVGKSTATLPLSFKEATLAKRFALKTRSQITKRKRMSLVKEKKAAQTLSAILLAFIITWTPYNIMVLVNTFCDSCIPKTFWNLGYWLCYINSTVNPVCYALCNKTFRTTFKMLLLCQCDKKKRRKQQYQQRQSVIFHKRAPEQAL

As to `O=C(Nc1ccccc1-c1ccccc1)OC1CCN(CCCCCCCCCNCc2cccc(F)c2O)CC1` [Example 30, Biphenyl-2-yl-carbamic acid 1-[9-(2-hydroxy-3-fluoro-benzylamino)-nonyl]-piperidin-4-yl ester], the pKi in test [1] was 9.15; in test [2], 8.88.

Regarding `O=C(Nc1ccccc1-c1ccccc1)OC1CCN(CCCCCCCCCNCc2ccc(O)c(F)c2)CC1` [Example 38, Biphenyl-2-yl-carbamic acid 1-[9-(4-hydroxy-3-fluoro-benzylamino)-nonyl]-piperidin-4-yl ester], the pKi in test [1] is 8.83; in test [2] it was 9.76. On to `O=C(Nc1ccccc1-c1ccccc1)OC1CCN(CCCCCCCCCNC(=O)c2ccc(F)cc2O)CC1` [Example 26, Biphenyl-2-yl-carbamic acid 1-[9-(2-hydroxy-4-fluoro-benzoylamino)-nonyl]-piperidin-4-yl ester], for which the pKi in test [1] was 8.35. Regarding `O=C(Nc1ccccc1-c1ccccc1)OC1CCN(CCCCCCCCCNC(=O)c2ccc(F)c(O)c2)CC1` [Example 7, Biphenyl-2-yl-carbamic acid 1-[9-(4-fluoro-3-hydroxy-benzoylamino)-nonyl]-piperidin-4-yl ester], the results for the pKi in test [1] and in test [2] were 8.87 and 9.00, respectively. Regarding `O=C(Nc1ccccc1-c1ccccc1)OC1CCN(CCCCCCCCCNC(=O)c2ccc(Cl)cc2O)CC1` [Example 14, Biphenyl-2-yl-carbamic acid 1-[9-(4-chloro-2-hydroxy-benzoylamino)-nonyl]-piperidin-4-yl ester], in test [1], the pKi is 7.86. For `O=C(Nc1ccccc1-c1ccccc1)OC1CCN(CCCCCCCCCNC(=O)c2cc(F)ccc2O)CC1` [Example 9, Biphenyl-2-yl-carbamic acid 1-[9-(5-fluoro-2-hydroxy-benzoylamino)-nonyl]-piperidin-4-yl ester], in test [1], the pKi was 8.06. As to `O=C(Nc1ccccc1-c1ccccc1)OC1CCN(CCCCCCCCCNC(=O)c2cc(Cl)cc(Cl)c2O)CC1` [Example 13, Biphenyl-2-yl-carbamic acid 1-[9-(3,5-dichloro-2-hydroxy-benzoylamino)-nonyl]-piperidin-4-yl ester], the pKi in test [1] is 7.74. In test [2], `CN(CCCCCCCCCN1CCC(OC(=O)Nc2ccccc2-c2ccccc2)CC1)C(=O)c1cc(Cl)ccc1O` [Example 68, Biphenyl-2-yl-carbamic acid 1-{9-[(5-chloro-2-hydroxy-benzoyl)-methyl-amino]-nonyl}-piperidin-4-yl ester] showed a pKi of 8.64. On to `O=C(Nc1ccccc1-c1ccccc1)OC1CCN(CCCCCCCCCNC(=O)c2cc(Cl)ccc2O)CC1` [Example 24, Biphenyl-2-yl-carbamic acid 1-[9-(2-hydroxy-5-chloro-benzoylamino)-nonyl]-piperidin-4-yl ester], for which, in test [1], the pKi is 7.77. Take `O=C(Nc1ccccc1-c1ccccc1)OC1CCN(CCCCCCCCCN(Cc2cccc(O)c2Cl)Cc2cccc(O)c2Cl)CC1` [Example 39, Biphenyl-2-yl-carbamic acid 1-{9-[bis-(2-chloro-3-hydroxy-benzyl)-amino]-nonyl}-piperidin-4-yl ester]: the pKi in test [2] was 8.95. In the case of `O=C(Nc1ccccc1-c1ccccc1)OC1CCN(CCCCCCCCCNC(=O)c2ccc(F)c(F)c2O)CC1` [Example 12, Biphenyl-2-yl-carbamic acid 1-[9-(3,4-difluoro-2-hydroxy-benzoylamino)-nonyl]-piperidin-4-yl ester], the pKi in test [1] was 8.14. As for `CN(CCCCCCCCCN1CCC(OC(=O)Nc2ccccc2-c2ccccc2)CC1)C(=O)c1ccc(F)cc1O` [Example 61, Biphenyl-2-yl-carbamic acid 1-{9-[(4-fluoro-2-hydroxy-benzoyl)-methyl-amino]-nonyl}-piperidin-4-yl ester], the pKi in test [2] is 9.11. On the same count and under the same terms, next, `CN(CCCCCCCCCN1CCC(OC(=O)Nc2ccccc2-c2ccccc2)CC1)C(=O)c1ccc(O)cc1Cl` [Example 65, Biphenyl-2-yl-carbamic acid 1-{9-[(2-chloro-4-hydroxy-benzoyl)-methyl-amino]-nonyl}-piperidin-4-yl ester]: 9.20.

Broadly, the pKi is the negative decadic logarithm of the Ki, by convention in mol/L.
